Results taken from ChEMBL document CHEMBL1201862, “PubChem BioAssay data set” (2004).
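Assay format: 96-well plates, 48-hour exposure. GI50 = concentration required for 50% inhibition of growth.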 Calls of active or inactive are those of the source. Cut-off read from the data, not from the text of the source: active = GI50 up to about 1.1 µM and inactive = higher.

Columns and labels:
Assay in all cases: growth of human tumour cells (NCI), 48 h
[1] = tested on: SK-MEL-5
[2] = tested on: UACC-257
[3] = tested on: LOX IMVI
[4] = tested on: IGROV-1
[5] = tested on: SF-268
[6] = tested on: MDA-MB-231
[7] = tested on: A549
[8] = tested on: SNB-19
[9] = tested on: SK-MEL-28
[10] = tested on: SN12C
[11] = tested on: TK-10
[12] = tested on: OVCAR-8
[13] = tested on: HOP-62
[14] = tested on: RPMI-8226
[15] = tested on: RXF 393
[16] = tested on: DU-145
[17] = tested on: OVCAR-5
[18] = tested on: A498
[19] = tested on: BT-549
[20] = tested on: MOLT-4
[21] = tested on: T47D
[22] = tested on: HT-29
[23] = tested on: OVCAR-3
[24] = tested on: CAKI-1
[25] = tested on: NCI-H460
[26] = tested on: MDA-MB-435
[27] = tested on: ACHN
[28] = tested on: SW-620
[29] = tested on: M14
[30] = tested on: NCI-H522
[31] = tested on: HCT-15
[32] = tested on: HCT-116
[33] = tested on: SK-OV-3
[34] = tested on: HOP-92
[35] = tested on: NCI-H226
[36] = tested on: SNB-75
[37] = tested on: SF-539
[38] = tested on: OVCAR-4
[39] = tested on: 786-0
[40] = tested on: EKVX
[41] = tested on: COLO 205
[42] = tested on: Malme-3M
[43] = tested on: UO-31
[44] = tested on: KM12
[45] = tested on: U-251
[46] = tested on: MDA-N
[47] = tested on: NCI/ADR-RES
[48] = tested on: NCI-H23
[49] = tested on: SF-295
[50] = tested on: HL-60
[51] = tested on: SK-MEL-2
[52] = tested on: SR
[53] = tested on: MCF7
[54] = tested on: K562
[55] = tested on: UACC-62
[56] = tested on: CCRF-CEM
[57] = tested on: HCC 2998
[58] = tested on: PC-3

## CSc1ncc2c(n1)C(C#N)C1Sc3ccccc3N1C2=O (stereo unspecified)
[1]
  GI50: > 100 µM (inactive)
[2]
  GI50: > 100 µM (inactive)
[3]
  GI50: > 100 µM (inactive)
[4]
  GI50: > 100 µM (inactive)
[5]
  GI50: 44.9 µM (inactive)
[6]
  GI50: > 100 µM (inactive)
[7]
  GI50: > 100 µM (inactive)
[8]
  GI50: 53.6 µM (inactive)
[9]
  GI50: > 100 µM (inactive)
[10]
  GI50: > 100 µM (inactive)
[11]
  GI50: 90.4 µM (inactive)
[12]
  GI50: > 100 µM (inactive)
[13]
  GI50: 37.5 µM (inactive)
[14]
  GI50: > 100 µM (inactive)
[15]
  GI50: 65 µM (inactive)
[16]
  GI50: > 100 µM (inactive)
[17]
  GI50: > 100 µM (inactive)
[18]
  GI50: > 100 µM (inactive)
[19]
  GI50: > 100 µM (inactive)
[20]
  GI50: > 100 µM (inactive)
[21]
  GI50: > 100 µM (inactive)
[22]
  GI50: > 100 µM (inactive)
[23]
  GI50: > 100 µM (inactive)
[24]
  GI50: > 100 µM (inactive)
[25]
  GI50: > 100 µM (inactive)
[26]
  GI50: > 100 µM (inactive)
[27]
  GI50: 59.4 µM (inactive)
[28]
  GI50: > 100 µM (inactive)
[29]
  GI50: > 100 µM (inactive)
[30]
  GI50: 62.2 µM (inactive)
[31]
  GI50: > 100 µM
[32]
  GI50: > 100 µM (inactive)
[33]
  GI50: > 100 µM (inactive)
[34]
  GI50: 80 µM (inactive)
[35]
  GI50: > 100 µM (inactive)
[36]
  GI50: 22.9 µM (inactive)
[37]
  GI50: 37.3 µM (inactive)
[38]
  GI50: > 100 µM (inactive)
[39]
  GI50: 76.9 µM (inactive)
[40]
  GI50: > 100 µM (inactive)
[41]
  GI50: > 100 µM (inactive)
[42]
  GI50: > 100 µM (inactive)
[43]
  GI50: > 100 µM (inactive)
[44]
  GI50: > 100 µM (inactive)
[45]
  GI50: 34.5 µM (inactive)
[46]
  GI50: > 100 µM (inactive)
[47]
  GI50: > 100 µM (inactive)
[48]
  GI50: 78 µM (inactive)
[49]
  GI50: 36 µM (inactive)

## C=CCN1C(=O)CS/C1=N/NC(=O)C(O)(c1ccccc1)c1ccccc1
[1]
  GI50: > 10 µM (inactive)
[4]
  GI50: > 10 µM (inactive)
[5]
  GI50: > 10 µM (inactive)
[50]
  GI50: > 10 µM (inactive)
[7]
  GI50: > 10 µM (inactive)
[51]
  GI50: > 10 µM (inactive)
[9]
  GI50: > 10 µM (inactive)
[52]
  GI50: > 10 µM (inactive)
[13]
  GI50: > 10 µM (inactive)
[53]
  GI50: > 10 µM (inactive)
[14]
  GI50: > 10 µM (inactive)
[15]
  GI50: > 10 µM (inactive)
[20]
  GI50: > 10 µM (inactive)
[21]
  GI50: > 10 µM (inactive)
[24]
  GI50: > 10 µM (inactive)
[25]
  GI50: > 10 µM (inactive)
[26]
  GI50: > 10 µM (inactive)
[27]
  GI50: > 10 µM (inactive)
[28]
  GI50: > 10 µM (inactive)
[29]
  GI50: > 10 µM (inactive)
[33]
  GI50: > 10 µM (inactive)
[54]
  GI50: > 10 µM (inactive)
[34]
  GI50: > 10 µM (inactive)
[36]
  GI50: > 10 µM (inactive)
[55]
  GI50: > 10 µM (inactive)
[56]
  GI50: > 10 µM (inactive)
[38]
  GI50: > 10 µM (inactive)
[39]
  GI50: > 10 µM (inactive)
[41]
  GI50: > 10 µM (inactive)
[42]
  GI50: > 10 µM (inactive)
[45]
  GI50: > 10 µM (inactive)
[47]
  GI50: > 10 µM (inactive)
[48]
  GI50: > 10 µM (inactive)

## O=[N+]([O-])c1ccc(/C=N/Nc2nnc3c4ccccc4c4ncccc4c3n2)o1
[57]
  GI50: > 10 µM (inactive)
[1]
  GI50: > 10 µM (inactive)
[2]
  GI50: > 10 µM (inactive)
[58]
  GI50: > 10 µM (inactive)
[4]
  GI50: > 10 µM (inactive)
[5]
  GI50: > 10 µM (inactive)
[50]
  GI50: > 10 µM (inactive)
[6]
  GI50: > 10 µM (inactive)
[7]
  GI50: > 10 µM (inactive)
[9]
  GI50: > 10 µM (inactive)
[52]
  GI50: > 10 µM (inactive)
[10]
  GI50: > 10 µM (inactive)
[11]
  GI50: > 10 µM (inactive)
[12]
  GI50: > 10 µM (inactive)
[13]
  GI50: > 10 µM (inactive)
[53]
  GI50: > 10 µM (inactive)
[14]
  GI50: > 10 µM (inactive)
[15]
  GI50: > 10 µM (inactive)
[16]
  GI50: > 10 µM (inactive)
[20]
  GI50: > 10 µM (inactive)
[21]
  GI50: > 10 µM (inactive)
[22]
  GI50: > 10 µM (inactive)
[24]
  GI50: > 10 µM (inactive)
[28]
  GI50: > 10 µM (inactive)
[29]
  GI50: > 10 µM (inactive)
[31]
  GI50: > 10 µM
[33]
  GI50: > 10 µM (inactive)
[54]
  GI50: > 10 µM (inactive)
[36]
  GI50: > 10 µM (inactive)
[55]
  GI50: > 10 µM (inactive)
[56]
  GI50: > 10 µM (inactive)
[39]
  GI50: > 10 µM (inactive)
[40]
  GI50: > 10 µM (inactive)
[41]
  GI50: > 10 µM (inactive)
[42]
  GI50: > 10 µM (inactive)
[44]
  GI50: > 10 µM (inactive)
[46]
  GI50: > 10 µM (inactive)
[48]
  GI50: > 10 µM (inactive)
[49]
  GI50: > 10 µM (inactive)

## O=C(O)C1CCCN(CCc2c[nH]c3ccccc23)C1 (stereo unspecified)
[57]
  GI50: > 100 µM (inactive)
[2]
  GI50: > 100 µM (inactive)
[58]
  GI50: > 100 µM (inactive)
[3]
  GI50: > 100 µM (inactive)
[4]
  GI50: > 100 µM (inactive)
[5]
  GI50: > 100 µM (inactive)
[50]
  GI50: > 100 µM (inactive)
[6]
  GI50: > 100 µM (inactive)
[7]
  GI50: > 100 µM (inactive)
[8]
  GI50: > 100 µM (inactive)
[51]
  GI50: > 100 µM (inactive)
[9]
  GI50: > 100 µM (inactive)
[10]
  GI50: > 100 µM (inactive)
[11]
  GI50: > 100 µM (inactive)
[12]
  GI50: > 100 µM (inactive)
[13]
  GI50: > 100 µM (inactive)
[53]
  GI50: > 100 µM (inactive)
[14]
  GI50: > 100 µM (inactive)
[15]
  GI50: > 100 µM (inactive)
[16]
  GI50: > 100 µM (inactive)
[17]
  GI50: > 100 µM (inactive)
[18]
  GI50: > 100 µM (inactive)
[19]
  GI50: > 100 µM (inactive)
[20]
  GI50: > 100 µM (inactive)
[21]
  GI50: > 100 µM (inactive)
[22]
  GI50: > 100 µM (inactive)
[23]
  GI50: > 100 µM (inactive)
[24]
  GI50: > 100 µM (inactive)
[25]
  GI50: > 100 µM (inactive)
[26]
  GI50: > 100 µM (inactive)
[27]
  GI50: > 100 µM (inactive)
[28]
  GI50: > 100 µM (inactive)
[29]
  GI50: > 100 µM (inactive)
[30]
  GI50: > 100 µM (inactive)
[31]
  GI50: > 100 µM
[32]
  GI50: > 100 µM (inactive)
[33]
  GI50: > 100 µM (inactive)
[54]
  GI50: > 100 µM (inactive)
[34]
  GI50: > 100 µM (inactive)
[35]
  GI50: > 100 µM (inactive)
[36]
  GI50: > 100 µM (inactive)
[37]
  GI50: > 100 µM (inactive)
[55]
  GI50: > 100 µM (inactive)
[56]
  GI50: > 100 µM (inactive)
[38]
  GI50: > 100 µM (inactive)
[39]
  GI50: > 100 µM (inactive)
[40]
  GI50: > 100 µM (inactive)
[41]
  GI50: > 100 µM (inactive)
[42]
  GI50: > 100 µM (inactive)
[44]
  GI50: > 100 µM (inactive)
[45]
  GI50: > 100 µM (inactive)
[46]
  GI50: > 100 µM (inactive)
[47]
  GI50: > 100 µM (inactive)
[48]
  GI50: > 100 µM (inactive)
[49]
  GI50: > 100 µM (inactive)
